Experimental data as given in PubChem BioAssay AID1963844 (Molecular Pharmacology Branch, DTP, NCI, 2024).

System: 422866-222-R5-J1-PDC complex spheroid viability
Assay: Anticancer human tumor 422866-222-R5-J1-PDC patient-derived pancreatic adenocarcinoma cell line growth inhibition [POLQ]
Settings: for IC50: curve of first compound; for viability, T/C: stronger effect = lower value
Outline: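 Complex spheroid viability model combining PDC tumour cells with endothelial (HUVEC) and MSC stromal cells. Novobiocin, ART-558 or RP6685 were tested singly and in combination with standard and investigational anticancer drugs. Each was titrated in half-log steps from near clinical Cmax, or from 10 microM where Cmax was unknown.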

[1] = second compound 0.0316 µM, first compound 0.0316 µM
[2] = second compound 0.0316 µM, first compound 0.1 µM
[3] = second compound 0.0316 µM, first compound 0.316 µM
[4] = second compound 0.0316 µM, first compound 1 µM
[5] = second compound 0.0316 µM, first compound 3.16 µM
[6] = second compound 0.0316 µM, first compound 10 µM
[7] = second compound 0.1 µM, first compound 0.0316 µM
[8] = second compound 0.1 µM, first compound 0.1 µM
[9] = second compound 0.1 µM, first compound 0.316 µM
[10] = second compound 0.1 µM, first compound 1 µM
[11] = second compound 0.1 µM, first compound 3.16 µM
[12] = second compound 0.1 µM, first compound 10 µM
[13] = second compound 0.316 µM, first compound 0.0316 µM
[14] = second compound 0.316 µM, first compound 0.1 µM
[15] = second compound 0.316 µM, first compound 0.316 µM
[16] = second compound 0.316 µM, first compound 1 µM
[17] = second compound 0.316 µM, first compound 3.16 µM
[18] = second compound 0.316 µM, first compound 10 µM
[19] = second compound 1 µM, first compound 0.0316 µM
[20] = second compound 1 µM, first compound 0.1 µM
[21] = second compound 1 µM, first compound 0.316 µM
[22] = second compound 1 µM, first compound 1 µM
[23] = second compound 1 µM, first compound 3.16 µM
[24] = second compound 1 µM, first compound 10 µM
[25] = second compound 3.16 µM, first compound 0.0316 µM
[26] = second compound 3.16 µM, first compound 0.1 µM
[27] = second compound 3.16 µM, first compound 0.316 µM
[28] = second compound 3.16 µM, first compound 1 µM
[29] = second compound 3.16 µM, first compound 3.16 µM
[30] = second compound 3.16 µM, first compound 10 µM
[31] = second compound 10 µM, first compound 0.0316 µM
[32] = second compound 10 µM, first compound 0.1 µM
[33] = second compound 10 µM, first compound 0.316 µM
[34] = second compound 10 µM, first compound 1 µM
[35] = second compound 10 µM, first compound 3.16 µM
[36] = second compound 10 µM, first compound 10 µM
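Also: spheroids exposed to compounds for one week before readout.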
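For viability, T/C in this document: percent of DMSO vehicle wells luminescence so 100% = untreated viability.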

CCc1cc2c(N3CCc4c(cc(Cn5ccnc5)cc4-c4cn(C)nc4C(F)(F)F)C3=O)cc(C)nc2c(OC)n1 + Nc1ccc(C#CCN(C(=O)Cc2ncc(C(F)(F)F)cc2C(F)(F)F)c2ccc(F)cc2)nn1
IC50 (second compound 0.0316 µM): > 10 µM | IC50 (second compound 0.1 µM): > 10 µM | IC50 (second compound 0.316 µM): > 10 µM | IC50 (second compound 1 µM): > 10 µM | IC50 (second compound 3.16 µM): > 10 µM | IC50 (second compound 10 µM): > 10 µM | viability, T/C [1]: 79.3% | viability, T/C [2]: 88.6% | viability, T/C [3]: 96% | viability, T/C [4]: 115% | viability, T/C [5]: 103% | viability, T/C [6]: 95.5% | viability, T/C [7]: 105% | viability, T/C [8]: 97.4% | viability, T/C [9]: 102% | viability, T/C [10]: 87.1% | viability, T/C [11]: 98.7% | viability, T/C [12]: 99.7% | viability, T/C [13]: 99.5% | viability, T/C [14]: 86.3% | viability, T/C [15]: 94.8% | viability, T/C [16]: 88.3% | viability, T/C [17]: 118% | viability, T/C [18]: 100% | viability, T/C [19]: 95.6% | viability, T/C [20]: 75% | viability, T/C [21]: 87.7% | viability, T/C [22]: 99.7% | viability, T/C [23]: 94.9% | viability, T/C [24]: 96.2% | viability, T/C [25]: 81.2% | viability, T/C [26]: 93.6% | viability, T/C [27]: 95.2% | viability, T/C [28]: 99.2% | viability, T/C [29]: 122% | viability, T/C [30]: 107% | viability, T/C [31]: 102% | viability, T/C [32]: 112% | viability, T/C [33]: 106% | viability, T/C [34]: 83.7% | viability, T/C [35]: 102% | viability, T/C [36]: 113%

CCc1cc2c(N3CCc4c(cc(Cn5ccnc5)cc4-c4cn(C)nc4C(F)(F)F)C3=O)ccnc2c(OC)n1 + Nc1ccc(C#CCN(C(=O)Cc2ncc(C(F)(F)F)cc2C(F)(F)F)c2ccc(F)cc2)nn1
IC50 (second compound 0.0316 µM): > 10 µM | IC50 (second compound 0.1 µM): > 10 µM | IC50 (second compound 0.316 µM): > 10 µM | IC50 (second compound 1 µM): > 10 µM | IC50 (second compound 3.16 µM): > 10 µM | IC50 (second compound 10 µM): > 10 µM | viability, T/C [1]: 82.5% | viability, T/C [2]: 102% | viability, T/C [3]: 103% | viability, T/C [4]: 119% | viability, T/C [5]: 89.2% | viability, T/C [6]: 126% | viability, T/C [7]: 79.7% | viability, T/C [8]: 103% | viability, T/C [9]: 112% | viability, T/C [10]: 109% | viability, T/C [11]: 95.6% | viability, T/C [12]: 120% | viability, T/C [13]: 85.7% | viability, T/C [14]: 85.2% | viability, T/C [15]: 79.5% | viability, T/C [16]: 128% | viability, T/C [17]: 98.9% | viability, T/C [18]: 98.3% | viability, T/C [19]: 82.8% | viability, T/C [20]: 77.3% | viability, T/C [21]: 107% | viability, T/C [22]: 101% | viability, T/C [23]: 113% | viability, T/C [24]: 107% | viability, T/C [25]: 102% | viability, T/C [26]: 90.7% | viability, T/C [27]: 92% | viability, T/C [28]: 92.7% | viability, T/C [29]: 114% | viability, T/C [30]: 115% | viability, T/C [31]: 92.8% | viability, T/C [32]: 115% | viability, T/C [33]: 93.7% | viability, T/C [34]: 102% | viability, T/C [35]: 110% | viability, T/C [36]: 106%

O=C(Nc1ccc(O)c(NS(=O)(=O)c2ccc(F)cc2)c1)c1ccc(-c2ccccc2)cc1 + Nc1ccc(C#CCN(C(=O)Cc2ncc(C(F)(F)F)cc2C(F)(F)F)c2ccc(F)cc2)nn1
IC50 (second compound 0.0316 µM): > 10 µM | IC50 (second compound 0.1 µM): > 10 µM | IC50 (second compound 0.316 µM): > 10 µM | IC50 (second compound 1 µM): > 10 µM | IC50 (second compound 3.16 µM): > 10 µM | IC50 (second compound 10 µM): > 10 µM | viability, T/C [1]: 98.8% | viability, T/C [2]: 84.9% | viability, T/C [3]: 81.6% | viability, T/C [4]: 86.9% | viability, T/C [5]: 83.7% | viability, T/C [6]: 113% | viability, T/C [7]: 105% | viability, T/C [8]: 94.3% | viability, T/C [9]: 97.1% | viability, T/C [10]: 90.5% | viability, T/C [11]: 99.8% | viability, T/C [12]: 123% | viability, T/C [13]: 88.7% | viability, T/C [14]: 90% | viability, T/C [15]: 94.2% | viability, T/C [16]: 89.9% | viability, T/C [17]: 97.3% | viability, T/C [18]: 116% | viability, T/C [19]: 107% | viability, T/C [20]: 84.5% | viability, T/C [21]: 92.6% | viability, T/C [22]: 87.9% | viability, T/C [23]: 88.6% | viability, T/C [24]: 117% | viability, T/C [25]: 107% | viability, T/C [26]: 99% | viability, T/C [27]: 99.6% | viability, T/C [28]: 78.7% | viability, T/C [29]: 103% | viability, T/C [30]: 109% | viability, T/C [31]: 105% | viability, T/C [32]: 85.2% | viability, T/C [33]: 80.8% | viability, T/C [34]: 93.8% | viability, T/C [35]: 101% | viability, T/C [36]: 102%
